The results in this text go back to patent US20080125467A1, “Amino-Containing Compounds Which Inhibit Memapsin 2 Beta-Secretase Activity and Methods of Use Thereof” (priority 2004, published 2008).

Some results are limits rather than exact numbers.

T1 sequence (G3IAK4 22-501): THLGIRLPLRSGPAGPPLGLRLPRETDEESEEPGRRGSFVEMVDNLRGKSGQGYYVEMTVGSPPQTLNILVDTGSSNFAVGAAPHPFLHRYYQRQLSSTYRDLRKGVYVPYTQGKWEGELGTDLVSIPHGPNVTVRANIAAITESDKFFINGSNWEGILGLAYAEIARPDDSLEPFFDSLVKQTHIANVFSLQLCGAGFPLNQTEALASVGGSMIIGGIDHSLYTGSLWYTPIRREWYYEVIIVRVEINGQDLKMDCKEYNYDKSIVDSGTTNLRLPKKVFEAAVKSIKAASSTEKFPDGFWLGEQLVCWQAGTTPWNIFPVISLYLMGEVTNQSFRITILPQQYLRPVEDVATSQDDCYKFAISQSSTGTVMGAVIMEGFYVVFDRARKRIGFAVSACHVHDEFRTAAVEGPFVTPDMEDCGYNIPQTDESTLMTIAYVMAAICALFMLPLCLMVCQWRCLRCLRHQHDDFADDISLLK

This experiment concerns the target T1, memapsin 2 (Cricetulus griseus, UniProt G3IAK4).
T1 construct: endogenous in cells; host or cells: Chinese hamster ovary cells over-expressing human APP695 (London + Swedish)
In words: Cellular Aβ IC50 determination (Aβ40 sandwich ELISA). In kind it is cell-based. Particulars: Chinese hamster ovary cells over-expressing human APP695 with London and Swedish mutations, 24 h. How it is done: The potency of compounds against memapsin 2 activity was determined in a cellular assay of Aβ production. […] Chinese hamster ovary cells that over-express human APP695 with the London and Swedish mutations were seeded in multi-well plates at 10% confluency. Compounds were dissolved in DMSO to concentrations near 1 mM, and diluted into culture media to a final concentration near 4 μM (final 0.4% DMSO). Compounds were diluted serially and applied to cells in multi-well plates 48 h after seeding. Incubation was continued in 5% CO2 at 37 degrees C. for 24 h. Aliquots were removed and assayed for Aβ40 content using a sandwich ELISA (BioSource International). Amount of Aβ40 over the range of concentration of compounds, relative to control incubations, were fit to a 4-parameter IC50 model.
For orientation: ELISA stands for enzyme-linked immunosorbent assay.
As to `Cc1csc(COC(=O)NCC(NC(=O)C(C)Cc2nc(C)cs2)C(=O)NC(CC(C)C)C(O)CC(C)C(=O)NC(C(=O)NCC(C)C)C(C)C)n1` (centres unmarked) [(4-methylthiazol-2-yl)methyl 3-(5-hydroxy-8-(1-(isobutylamino)-3-methyl-1-oxobutan-2-ylamino)-2,7-dimethyl-8-oxooctan-4-ylamino)-2-(2-methyl-3-(4-methylthiazol-2-yl)propanamido)-3-oxopropylcarbamate], the IC50 (in general, the midpoint of a concentration-inhibition curve) is less than 6 µM. `CCC(Cc1nc(C)cs1)C(=O)NC(CNC(=O)OC(C)C)C(=O)NC(CC(C)C)C(O)CC(C)C(=O)NC(C(=O)NCC(C)C)C(C)C` (centres unmarked) [isopropyl 3-(5-hydroxy-8-(1-(isobutylamino)-3-methyl-1-oxobutan-2-ylamino)-2,7-dimethyl-8-oxooctan-4-ylamino)-2-(2-((4-methylthiazol-2-yl)methyl)butanamido)-3-oxopropylcarbamate] yielded an IC50 of less than 6 µM. Consider `COC(=O)NCC(NC(=O)C(C)Cc1nc(C)cs1)C(=O)NC(CC(C)C)C(O)CC(C)C(=O)NC(C(=O)NCC(C)C)C(C)C` (centres unmarked) [methyl 3-(5-hydroxy-8-(1-(isobutylamino)-3-methyl-1-oxobutan-2-ylamino)-2,7-dimethyl-8-oxooctan-4-ylamino)-2-(2-methyl-3-(4-methylthiazol-2-yl)propanamido)-3-oxopropylcarbamate], for which the IC50 is less than 6 µM.

As to `CCC(Cn1nc(C)cc1C)C(=O)NC(CNC(=O)OC(C)(C)C)C(=O)NC(CC(C)C)C(O)CC(C)C(=O)NC(C(=O)NCC(F)(F)F)C(C)C` (centres unmarked) [tert-butyl 2-(2-((3,5-dimethyl-1H-pyrazol-1-yl)methyl)butanamido)-3-(5-hydroxy-2,7-dimethyl-8-(3-methyl-1-oxo-1-(2,2,2-trifluoroethylamino)butan-2-ylamino)-8-oxooctan-4-ylamino)-3-oxopropylcarbamate], the IC50 is 6 to 100 µM. `CCC(Cn1nc(C)cc1C)C(=O)NC(CNC(=O)OC(C)(C)C)C(=O)NC(CC(C)C)C(O)CC(C)C(=O)NC(C(=O)NCc1ccccn1)C(C)C` (centres unmarked) [tert-butyl 2-(2-((3,5-dimethyl-1H-pyrazol-1-yl)methyl)butanamido)-3-(5-hydroxy-2,7-dimethyl-8-(3-methyl-1-oxo-1-(pyridin-2-ylmethylamino)butan-2-ylamino)-8-oxooctan-4-ylamino)-3-oxopropylcarbamate] gave an IC50 of 6 to 100 µM. Regarding `CCC(Cn1nc(C)cc1C)C(=O)NC(CNC(=O)OC(C)(C)C)C(=O)NC(CC(C)C)C(O)CC(C)C(=O)NC(C(=O)NCc1ccncc1)C(C)C` (centres unmarked) [tert-butyl 2-(2-((3,5-dimethyl-1H-pyrazol-1-yl)methyl)butanamido)-3-(5-hydroxy-2,7-dimethyl-8-(3-methyl-1-oxo-1-(pyridin-4-ylmethylamino)butan-2-ylamino)-8-oxooctan-4-ylamino)-3-oxopropylcarbamate], the IC50 was less than 6 µM.

For the compound `CCC(Cn1nc(C)cc1C)C(=O)NC(CNC(=O)OC(C)(C)C)C(=O)NC(CC(C)C)C(O)CC(C)C(=O)NC(C(=O)NCC(C)C)C(C)C` (centres unmarked) [tert-butyl 2-(2-((3,5-dimethyl-1H-pyrazol-1-yl)methyl)butanamido)-3-(5-hydroxy-8-(1-(isobutylamino)-3-methyl-1-oxobutan-2-ylamino)-2,7-dimethyl-8-oxooctan-4-ylamino)-3-oxopropylcarbamate], the IC50 was less than 6 µM. With `Cc1cc(C)n(CC(N)C(=O)NC(CNC(=O)OC(C)(C)C)C(=O)NC(CC(C)C)C(O)CC(C)C(=O)NC(C(=O)NCC(C)C)C(C)C)n1` (centres unmarked) [tert-butyl 2-(2-amino-3-(3,5-dimethyl-1H-pyrazol-1-yl)propanamido)-3-(5-hydroxy-8-(1-(isobutylamino)-3-methyl-1-oxobutan-2-ylamino)-2,7-dimethyl-8-oxooctan-4-ylamino)-3-oxopropylcarbamate], the IC50 was greater than 100 µM.
